Laboratory results as given in paper PMC6857076 (Pharmacology Research & Perspectives, 2019).

Test system: JAK-dependent cytokine receptors
Experiment: Integrated modeling: calculated cytokine receptor inhibitory concentrations (ICxx)
Set-up: species or system human
Conditions: calculated ICxx at clinically meaningful doses, Figure 1
Source text: An integrated modeling approach was applied to determine cytokine receptor inhibition profiles. Whole blood IC50 values were converted to unbound values (IC50,u) using measured blood‐to‐plasma ratios and measured fu values, as shown in Equation 2:(2) IC50,u=IC50/blood:plasma ratio×fu

CC[C@@H]1CN(C(=O)NCC(F)(F)F)C[C@@H]1c1cnc2cnc3[nH]ccc3n12 [Upadacitinib]
Inhibition (ICxx) of JAK1/JAK2-mediated (IFNγ, G-CSF) and JAK2-mediated (TPO, IL-3, GM-CSF) cytokine receptors vs other JAK inhibitors: numerically greater
